According to patent publication US20150231109A1, “COMBINATIONS (CATECHINS AND METHOTREXATE) FOR USE IN THE TREATMENT OF MELANOMAS” (UNIVERSIDAD DE MURCIA, priority 2012, published 2015):

Assays:
[1] = system: melanoma cells (SK-MEL-28); assay: dNTP pool extraction and analysis; type: cell-based, human
Description: FIGS. 2A-N. MTX and TMECG combination therapy induces apoptosis via dTTP depletion and DNA-damage. A, Intracellular accumulation of TMECG-QM in SK-MEL-28 treated with TMECG or MTX/TMECG for 24 h. B, Proliferation assays performed of control or MTX/TMECG-treated ([…]) SK-MEL-28 cells. C, Quantification of effects of MTX/TMECG treatment on SK-MEL-28 cells (*P<0.05 with respect to TMECG-treated cells). For time course assay MTX (1 μM) and TMECG (10 μM) were used. D, dNTP quantification in melanoma cells subjected to indicated treatments (*P<0.05). E, SK-MEL-28 cells treated with MTX/TMECG for the indicated times were examined by immunofluorescence for γH2AX foci (red) and DAPI (blue) (left panels), or by WB (right panels). β-actin served as a protein loading control. F, apoptosis determination at different MTX/TMECG combinations in SK-MEL-28 cells after 4 days of treatment. Data were obtained in triplicate in two independent experiments. Differences in apoptosis in MTX/TMECG treated cells were significant with respect to individual treatments for each drug concentration (p<0.05). […] K, quantification of γH2AX foci in SK-MEL-28 cells treated with MTX (1 μM) and/or TMECG (10 μM), or X-rays. […] N, Cell cycle profile determined by flow cytometry of SK-MEL-28 cells treated with a sublethal dose of MTX/TMECG. […]

SK-MEL-28 cells = assay: Matrigel Boyden chamber invasion assay, SK-MEL-28; type: cell-based, human; details: SK-MEL-28, MTX 48 h, 1 μM
Description: FIGS. 1A-J. Methotrexate up-regulates the expression of MITF. A, The MITF rheostat, and the two-step strategy for melanoma therapy: Drug A induces MITF, driving cells to be sensitive to Drug B. B, MTX (1 μM) increases MITF mRNA determined using quantitative and conventional RT-PCR from indicated cell lines. […] C, MTX (1 μM) induces MITF protein assayed by western blotting (WB) (*P<0.05). D, Immunofluorescence of control or MTX-treated (3 h) 501 MEL cells using anti-MITF and DAPI. E, Matrigel assay of control and MTX-treated SKMEL-28 cells (48 h, 1 μM) and IGR39 (72 h, 1 μM) cells. […] Scale bar refers to all panels. F, Chromatin immunoprecipitation on TYR and Pmel17 genes of control and MTX-treated (4 h, 1 μM) SK-MEL-28 cells with qRT-PCR after immunoprecipitation with IgG, or MITF and HDAC3 antibodies. Error bars indicate standard deviations of triplicates; experiment reproduced four times with similar results. G, Scanning electron micrographs of control and MTX-treated (1 μM, 24 h) SK-MEL-28 cells. H, Semiquantitative RT PCR of TYR, TYRP1, Pmel17, MART1, and Rab27a mRNA. […]
Invasion assays were performed using a cell invasion assay kit (BD Bioscience). […] The invading cells were stained and quantified measuring the surface occupied by stained cells with a cell counter plug-in of the Image J software.

CN(Cc1cnc2nc(N)nc(N)c2n1)c1ccc(C(=O)N[C@@H](CCC(=O)O)C(=O)O)cc1 [MTX, methotrexate] was tested, and the dTTP levels [1] was “increased dTTP levels” and the invasiveness (SK-MEL-28 cells) was “eliminated invasiveness”.
